# Source: patent US20250320207A1, “Ketal Protected Intermediate for Sonrotoclax and Preparation Method Thereof” (priority 2022, published 2025)
# Method: The sample was tested by GC (carrier gas: N2) and HPLC (Column: Waters Xselect HSS T3 (150 mm*4.6 mm, 3.5 um) P/N: 186004786; mobile phase 0.05% TFA in water, ACN:MeOH=1:1, v/v; Flow: 1 ml/min; Temperature: 30° C.).
structure (smiles),measurement,setting,value
"C1COC2(CC3(CCNCC3)C2)OC1.Cl [1,5-dioxa-11-azadispiro[5.1.5.1]tetradecane hydrogen chloride]",storage stability (result in words),,stable enough
same,"Product, Impurity profile (RRT, Area %), RRT 1.00","stored at 2-8° C. for 3.5 months, double layered LDPE bag with desiccant inside heat-sealed aluminum foil bag, GC and HPLC",99.90 Area %
